This is an account of results in ChEMBL document CHEMBL1201862, “PubChem BioAssay data set” (2004).

SMILES strings stand for the structures.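 Five compound concentrations were applied to cells in 96-well plates for 48 hours; endpoints were derived by simple linear interpolation of the resulting dose-response curve. GI50: concentration for 50% inhibition of growth.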 Active and inactive are the calls of the source. Cut-off read from the data, not from the text of the source: active = GI50 up to about 1.1 µM and inactive = higher.

Test systems include NCI-H23; U-251; KM12; COLO 205; SN12C; HOP-62; NCI-H460; SNB-19; SF-539; SR; RPMI-8226; OVCAR-4; LOX IMVI; RXF 393; Malme-3M; UACC-62; OVCAR-5; SK-MEL-2; MCF7.
Common to all, as to test: NCI tumour cell line growth inhibition, 48 h

Take `Cc1c(C(=O)/C=C/c2ccc([N+](=O)[O-])cc2)[n+]([O-])c2ccccc2[n+]1[O-]`: the GI50 was 28.2 µM (inactive) with NCI-H23; 92.5 µM (inactive) in the experiment with U-251; 93.5 µM (inactive) in the experiment on KM12; > 100 µM (inactive) in the experiment on COLO 205; > 100 µM (inactive) with SN12C; > 100 µM (inactive) with HOP-62. The GI50 in the experiment on NCI-H460 was 62.2 µM (inactive); with SNB-19, > 100 µM (inactive); in the experiment on SF-539, 49.1 µM (inactive); in the experiment on SR, 43 µM (inactive); with RPMI-8226, 33.6 µM (inactive); with OVCAR-4, 24.8 µM (inactive). Further, the GI50 in the experiment with LOX IMVI was 42.3 µM (inactive); in the experiment on RXF 393, 29.1 µM (inactive); with Malme-3M, > 100 µM (inactive); with UACC-62 it was 41.7 µM (inactive); in the experiment with OVCAR-5, > 100 µM (inactive).

As for `CCCC[C@H](CCc1ccccc1)N(C(=O)OC)N1CCC[C@H]1COC`, the GI50 in the experiment with SK-MEL-2 is 18.5 µM (inactive); with NCI-H23, 17.2 µM (inactive); in the experiment on U-251, 15.4 µM (inactive); in the experiment on KM12, 18.8 µM (inactive); in the experiment on COLO 205 it was 16.3 µM (inactive); in the experiment on SN12C, 17.9 µM (inactive). Besides, the GI50 was 23 µM (inactive) in the experiment with HOP-62; 17.1 µM (inactive) in the experiment on NCI-H460; 16.4 µM (inactive) with SNB-19; 18 µM (inactive) in the experiment on SF-539; 24.3 µM (inactive) with SR; 31.6 µM (inactive) in the experiment on RPMI-8226. Besides, the GI50 in the experiment on OVCAR-4 is 17.5 µM (inactive); in the experiment with LOX IMVI, 18.3 µM (inactive); in the experiment with RXF 393, 18.1 µM (inactive); with Malme-3M, 16.3 µM (inactive); with UACC-62, 16 µM (inactive); in the experiment with OVCAR-5, 17.8 µM (inactive).

`O=S(=O)(c1ccccc1)n1cc(C[P+](c2ccccc2)(c2ccccc2)c2ccccc2)c2ccccc21`: the GI50 in the experiment with SK-MEL-2 was 2.3 µM (inactive); in the experiment on NCI-H23 it was 2.99 µM (inactive); in the experiment on U-251, 3.79 µM (inactive); with KM12 it was 3.6 µM (inactive); in the experiment on COLO 205 it was 1.99 µM (inactive); with SN12C it was 5.69 µM (inactive). The GI50 was 3.19 µM (inactive) with HOP-62; 2.91 µM (inactive) in the experiment on NCI-H460; 2.61 µM (inactive) with SNB-19; 4.59 µM (inactive) with SF-539; 5.2 µM (inactive) in the experiment on SR; 0.6 µM (active) in the experiment with RPMI-8226. Also, the GI50 in the experiment with OVCAR-4 is 9.95 µM (inactive); with LOX IMVI, 3.57 µM (inactive); in the experiment with RXF 393 it was 6.35 µM (inactive); with Malme-3M, 4.38 µM (inactive); with UACC-62 it was 5.12 µM (inactive); with OVCAR-5, 17.2 µM (inactive).

As to `O=C(NC(CO)Cc1ccc(Oc2cc(CC(CO)NC(=O)OCc3ccccc3)ccc2OC(=O)OCc2ccccc2)cc1)OCc1ccccc1` (stereo unspecified), the GI50 in the experiment on SK-MEL-2 is 19.3 µM (inactive); with NCI-H23, 16.1 µM (inactive); in the experiment with KM12, 17.1 µM (inactive); with COLO 205, 18.2 µM (inactive); in the experiment on SN12C it was 19.1 µM (inactive); in the experiment with HOP-62 it was 20.2 µM (inactive). The GI50 in the experiment with NCI-H460 was 17.8 µM (inactive); in the experiment on SNB-19 it was 22.4 µM (inactive); in the experiment with SF-539, 20.1 µM (inactive); with SR it was 4.19 µM (inactive); in the experiment on RPMI-8226, 2.94 µM (inactive); with OVCAR-4 it was 18.8 µM (inactive). For the same molecule, the GI50 with LOX IMVI was 12.1 µM (inactive); in the experiment on MCF7, 11.8 µM (inactive); in the experiment with Malme-3M it was 16.7 µM (inactive); in the experiment with OVCAR-5, 24.4 µM (inactive).

As to `COc1cc(/C=C/c2ccc(O)c(OC)c2)cc(OC)c1`, the GI50 with NCI-H23 is 26.5 µM (inactive); in the experiment with U-251, 19.5 µM (inactive); with KM12, 20.8 µM (inactive); in the experiment with COLO 205, > 100 µM (inactive); in the experiment with HOP-62, 50.6 µM (inactive); in the experiment on NCI-H460 it was 19 µM (inactive). In addition, the GI50 was 36.4 µM (inactive) in the experiment with SNB-19; 25.8 µM (inactive) in the experiment on SR; 30.3 µM (inactive) in the experiment with RPMI-8226; 41.8 µM (inactive) with OVCAR-4; 26.2 µM (inactive) in the experiment on MCF7; 22.6 µM (inactive) in the experiment on RXF 393. In addition, the GI50 with Malme-3M is 30.7 µM (inactive); with OVCAR-5 it was 31.6 µM (inactive).

Regarding `COC(=O)[C@@]1(C)/C(=N/NS(=O)(=O)c2ccc(C)cc2)CCC[C@@H]1C`, the GI50 was > 100 µM (inactive) in the experiment on SK-MEL-2; > 100 µM (inactive) with NCI-H23; > 100 µM (inactive) in the experiment on U-251; > 100 µM (inactive) with KM12; 69.2 µM (inactive) in the experiment on COLO 205; > 100 µM (inactive) with SN12C. Also, the GI50 in the experiment on HOP-62 is > 100 µM (inactive); with NCI-H460, 34 µM (inactive); with SNB-19, > 100 µM (inactive); in the experiment on SF-539 it was 88.3 µM (inactive); in the experiment on SR, 19.8 µM (inactive); with RPMI-8226, 30.8 µM (inactive). Also, the GI50 was > 100 µM (inactive) with OVCAR-4; 14.3 µM (inactive) with LOX IMVI; > 100 µM (inactive) in the experiment on RXF 393; > 100 µM (inactive) in the experiment on Malme-3M; > 100 µM (inactive) with UACC-62; > 100 µM (inactive) in the experiment on OVCAR-5.

With `CC(C)C(Nc1c2ccccc2[n+](C)c2ccccc12)C(=O)O` (stereo unspecified), the GI50 in the experiment on SK-MEL-2, in the experiment with NCI-H23, in the experiment with U-251, in the experiment with KM12, in the experiment on COLO 205 and with SN12C was > 100 µM (inactive) in each case. For the same molecule, the GI50 in the experiment on HOP-62, in the experiment with NCI-H460, with SNB-19, in the experiment on SF-539, in the experiment with SR and in the experiment with RPMI-8226 was > 100 µM (inactive) throughout. Also, the GI50 in the experiment on OVCAR-4, in the experiment with RXF 393, in the experiment on Malme-3M, in the experiment on UACC-62 and with OVCAR-5 was > 100 µM (inactive) in each case.

With `CC(=O)OC1CCC2OOC1O2` (stereo unspecified), the GI50 in the experiment with SK-MEL-2, in the experiment on NCI-H23, in the experiment on U-251, in the experiment with KM12, in the experiment on COLO 205 and in the experiment on SN12C was > 100 µM (inactive) each time. The GI50 with HOP-62, with NCI-H460, in the experiment with SNB-19, in the experiment with SF-539, with SR and in the experiment on RPMI-8226 was > 100 µM (inactive) throughout. The GI50 in the experiment with OVCAR-4, in the experiment with LOX IMVI, in the experiment on RXF 393, with Malme-3M, with UACC-62 and with OVCAR-5 was > 100 µM (inactive) throughout.

As to `O=C1C=CC(=O)C2=C1[C@@H](O)C1CC=CC3C(=O)O[C@@H]2C31` (stereo partly specified), the GI50 in the experiment with SK-MEL-2 is 18.2 µM (inactive); in the experiment with NCI-H23, 27 µM (inactive); in the experiment on U-251, > 77.8 µM (inactive); in the experiment with KM12 it was 19.8 µM (inactive); in the experiment on COLO 205, 20.3 µM (inactive); in the experiment with SN12C it was 20.7 µM (inactive). For the same molecule, the GI50 in the experiment with HOP-62 was > 100 µM (inactive); in the experiment with NCI-H460 it was > 55.8 µM (inactive); in the experiment with SNB-19 it was > 100 µM (inactive); in the experiment with SF-539 it was > 43.9 µM (inactive); in the experiment with SR, 4.65 µM (inactive); in the experiment on RPMI-8226, 19.9 µM (inactive). Further, the GI50 was 13.2 µM (inactive) in the experiment with OVCAR-4; 20.6 µM (inactive) in the experiment on LOX IMVI; 18 µM (inactive) in the experiment on RXF 393; 19.1 µM (inactive) in the experiment with Malme-3M; 19.2 µM (inactive) in the experiment with UACC-62; 74.3 µM (inactive) in the experiment with OVCAR-5.

Consider `Cc1cc(C)nc(NS(=O)(=O)c2ccc(Nc3nnc(/C=C/c4c(O)ccc5ccccc45)c(=O)n3N)cc2)n1`, for which the GI50 is 19.1 µM (inactive) in the experiment on NCI-H23; 22.3 µM (inactive) with SN12C; 37.4 µM (inactive) with HOP-62; 43.1 µM (inactive) in the experiment on SNB-19; 18.8 µM (inactive) in the experiment on SR; 30.1 µM (inactive) with RPMI-8226. For the same molecule, the GI50 in the experiment on OVCAR-4 is 22.5 µM (inactive); in the experiment on MCF7, 17.7 µM (inactive); in the experiment on RXF 393, 18.6 µM (inactive); in the experiment with Malme-3M it was 36.6 µM (inactive); in the experiment on UACC-62 it was 29 µM (inactive); with OVCAR-5, 39.3 µM (inactive).

For the molecule `CC(CCC(=O)O)c1ccc(Br)cc1` (stereo unspecified), the GI50 in the experiment with SK-MEL-2, in the experiment with NCI-H23, in the experiment with U-251, in the experiment on KM12, with COLO 205 and with SN12C was > 100 µM (inactive) each time. The GI50 with HOP-62, in the experiment with NCI-H460, in the experiment on SNB-19, in the experiment on SR, with RPMI-8226 and with OVCAR-4 was > 100 µM (inactive) in each case. Also, the GI50 in the experiment with LOX IMVI, with RXF 393, in the experiment on Malme-3M, in the experiment on UACC-62 and with OVCAR-5 was > 100 µM (inactive) each time.

Consider `NC(=S)N1N=C2c3ccccc3CC[C@H]2[C@@H]1c1cccs1`, for which the GI50 in the experiment on SK-MEL-2 was 22.1 µM (inactive); in the experiment on NCI-H23, 24.6 µM (inactive); in the experiment with U-251 it was 35.3 µM (inactive); with KM12, 26.6 µM (inactive); with COLO 205, 16.5 µM (inactive); in the experiment on SN12C, 39.3 µM (inactive). The GI50 in the experiment with HOP-62 was 33.3 µM (inactive); in the experiment on NCI-H460, 33 µM (inactive); with SNB-19 it was 75.7 µM (inactive); in the experiment with SF-539, 43.2 µM (inactive); in the experiment with SR, 4.68 µM (inactive); with RPMI-8226, 37.9 µM (inactive). Further, the GI50 was 45.2 µM (inactive) in the experiment with OVCAR-4; 66.5 µM (inactive) in the experiment with LOX IMVI; 16.8 µM (inactive) in the experiment with RXF 393; 19.2 µM (inactive) in the experiment with Malme-3M; 33.7 µM (inactive) with UACC-62; > 100 µM (inactive) with OVCAR-5.
